Drawing on PubChem BioAssay (NCI), this text covers GI50 and TGI for one compound.

A word on the GI50: it is the concentration giving 50% growth inhibition. For orientation: TGI means the concentration giving total growth inhibition.

Several values for one entry are separate records, joined by “and”; a condition that tells them apart may be missing. Equal entries are not always repeated.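 Where inhibition never reached the appropriate level, the endpoint shown equals the highest concentration tested. Otherwise, values were interpolated linearly from a five-concentration, 48-hour dose response in 96-well plates. Here, GI50 denotes the concentration required for 50% inhibition of growth. Definition used: TGI = concentration required for complete inhibition of growth.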 Where a SMILES comes first, the peptide text is derived from it. [ ]: non-standard residue; d: D form. The star is where a group is joined. ξ: configuration not given here. NMeN = CN[C@@H](CC(N)=O)C(=O)O; NMeV = CN[C@H](C(=O)O)C(C)C; ξNMeV = CNC(C(=O)O)C(C)C; Boc = CC(C)(C)OC(=O)*; ξNMeA = CNC(C)C(=O)O

Some test systems named below: A549 NSCLC; HCC-2998 colon; HL-60(TB) leukemia; HOP-62 NSCLC; HT29 colon; MDA-MB-435; SK-MEL-5 melanoma; SN12C renal; TK-10 renal; UO-31 renal.
Holding throughout (test): DTP human tumour cell line panel, 48 h

Consider `COC(=O)C(C)N(C)C(=O)[C@H](CC(N)=O)N(C)C(=O)[C@@H]1CCCN1C(=O)[C@H](C(C)C)N(C)C(=O)C(C(C)C)N(C)C(=O)[C@@H](NC(=O)OC(C)(C)C)C(C)C` (some centres undefined) (Boc-V[ξNMeV][NMeV]P[NMeN][ξNMeA]-OMe), for which the GI50 with A549 NSCLC, in the test on HCC-2998 colon, in the test with HL-60(TB) leukemia, in the test on HOP-62 NSCLC, with HT29 colon and in the test with SK-MEL-5 melanoma was above 100 µM in each case. The GI50 in the test with SN12C renal, with TK-10 renal and with UO-31 renal was above 100 µM in each case. For the same compound, the TGI in the test on A549 NSCLC is 50 µM and > 100 µM; in the test with HCC-2998 colon, above 100 µM; in the test on HL-60(TB) leukemia it was 50 µM and > 100 µM; in the test on HOP-62 NSCLC it was above 100 µM; in the test on HT29 colon, above 100 µM; with MDA-MB-435 it was above 50 µM. The TGI in the test on SK-MEL-5 melanoma was 50 µM and > 100 µM; in the test on SN12C renal, above 100 µM; in the test on TK-10 renal, above 100 µM; with UO-31 renal it was 50 µM and > 100 µM.
